Experimental data taken from patent US12486302B2, “Somatostatin receptor antagonist compounds and methods of using the same” (CDRD VENTURES INC., priority 2016, dated 2025).
Where a SMILES comes first, the peptide text is derived from it. Bridges are numbered along the chain shown (N, C = ends). [ ]: non-standard residue; d: D form. ξ: configuration not given here. dPhe(4-CONH2) = NC(=O)c1ccc(C[C@@H](N)C(=O)O)cc1; Phe(4-Cl) = N[C@@H](Cc1ccc(Cl)cc1)C(=O)O; ξPhe(4-Cl) = NC(Cc1ccc(Cl)cc1)C(=O)O; Lys(Me) = CNCCCC[C@H](N)C(=O)O; ξY = NC(Cc1ccc(O)cc1)C(=O)O

Biological target: somatostatin type 2 (SSTR2) receptors (Homo sapiens, UniProt P30874)
Sequence (P30874 whole entry): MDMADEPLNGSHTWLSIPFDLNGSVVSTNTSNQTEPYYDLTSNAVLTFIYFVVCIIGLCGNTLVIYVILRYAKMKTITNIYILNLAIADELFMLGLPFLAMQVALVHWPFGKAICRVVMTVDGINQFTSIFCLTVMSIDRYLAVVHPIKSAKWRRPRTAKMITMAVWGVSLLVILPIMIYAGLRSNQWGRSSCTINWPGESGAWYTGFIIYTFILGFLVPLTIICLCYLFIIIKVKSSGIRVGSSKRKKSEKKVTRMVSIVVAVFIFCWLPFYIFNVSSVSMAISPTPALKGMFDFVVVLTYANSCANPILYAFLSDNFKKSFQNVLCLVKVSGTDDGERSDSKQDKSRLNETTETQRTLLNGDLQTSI
Test: PathHunter β-Arrestin assay, antagonist mode, SSTR2
Type: cell-based
Conditions: agonist challenge at EC80
Method: The PathHunter® β-Arrestin assay monitors the activation of a GPCR in a homogenous, non-imaging assay format using a technology developed by DiscoveRx called Enzyme Fragment Complementation (EFC) with β-galactosidase (β-Gal) as the functional reporter. […] EA is fused to β-Arrestin and […] is fused to the GPCR of interest. When the GPCR is activated and β-Arrestin is recruited to the receptor, ED and EA complementation occurs, restoring β-Gal activity which is measured using chemiluminescent PathHunter® Detection Reagents. For antagonist determination, cells were pre-incubated with the compounds followed by agonist challenge at the EC80 concentration. Data was normalized to the maximal and minimal response observed in the presence of EC80 ligand and vehicle. Compound activity was analyzed using CBIS data analysis suite ChemInnovation, CA). Percentage inhibition was calculated using the following formula: % Inhibition=100%×(1−(mean signal of test sample-mean signal of vehicle control)/(mean signal of EC80 control-mean signal of vehicle control)). Percentage inhibition was calculated at 10 concentrations in steps on a Log 3 scale ranging from […] to 5e-5 μM. The results were plotted for IC50 calculation.

SMILES | IC50
C[C@@H](O)[C@@H]1NC(=O)[C@H](CCCCN)NC(=O)[C@@H](Cc2ccc(C(N)=O)cc2)NC(=O)[C@H](Cc2ccc(Cl)cc2)NC(=O)[C@H](NC(=O)[C@@H](N)Cc2ccc(Cl)cc2)CSSC[C@@H](C(=O)NC(Cc2ccc(Cl)cc2)C(N)=O)NC1=O (stereo partly drawn) [Compound 43, H-Cpa-cyclo[DCys- 4-Cl-Phe-D-(4- carbamoyl)Phe-Lys- Thr-Cys]-4-Cl-D- Phe-NH2] (H-[Phe(4-Cl)][dC][Phe(4-Cl)][dPhe(4-CONH2)]KTC[ξPhe(4-Cl)]-NH2; disulfide 2-7) | 25.6 nM
COc1ccc(CC(NC(=O)[C@@H]2CSSC[C@@H](NC(=O)[C@@H](N)Cc3ccc(Cl)cc3)C(=O)N[C@@H](Cc3ccc(O)cc3)C(=O)N[C@H](Cc3ccc(C(N)=O)cc3)C(=O)N[C@@H](CCCCN)C(=O)N[C@@H]([C@@H](C)O)C(=O)N2)C(N)=O)cc1 (stereo partly drawn) [Compound 44, H-Cpa-cyclo[DCys- Tyr-D-(4- carbamoyl)Phe-Lys- Thr-Cys]-4-OMe-D- Phe-NH2] (H-[Phe(4-Cl)][dC]Y[dPhe(4-CONH2)]KTC[ξY](Me)-NH2; disulfide 2-7) | 10.7 nM
COc1ccc(CC(NC(=O)[C@@H]2CSSC[C@@H](NC(=O)[C@@H](N)Cc3ccc(Cl)cc3)C(=O)N[C@@H](Cc3ccc(OC)cc3)C(=O)N[C@H](Cc3ccc(C(N)=O)cc3)C(=O)N[C@@H](CCCCN)C(=O)N[C@@H]([C@@H](C)O)C(=O)N2)C(N)=O)cc1 (stereo partly drawn) [Compound 45, H-Cpa-cyclo[DCys- 4-OMe-Phe-D-(4- carbamoyl)Phe-Lys- Thr-Cys]-4-OMe-D- Phe-NH2] (H-[Phe(4-Cl)][dC]Y(Me)[dPhe(4-CONH2)]KTC[ξY](Me)-NH2; disulfide 2-7) | 14.6 nM
CNCCCC[C@@H]1NC(=O)[C@@H](Cc2ccc(C(N)=O)cc2)NC(=O)[C@H](Cc2ccc(Cl)cc2)NC(=O)[C@H](NC(=O)[C@@H](N)Cc2ccc(Cl)cc2)CSSC[C@@H](C(=O)NC(Cc2ccc(O)cc2)C(N)=O)NC(=O)[C@H]([C@@H](C)O)NC1=O (stereo partly drawn) [Compound 48, H-Cpa-cyclo[D-Cys-Cpa-D-Phe(4-carbamoyl)-Lys(N^ε-Me)-Thr-Cys]-D-Tyr-NH2] (H-[Phe(4-Cl)][dC][Phe(4-Cl)][dPhe(4-CONH2)][Lys(Me)]TC[ξY]-NH2; disulfide 2-7) | 1.31 nM

Continued by falling IC50, values first:

IC50 | SMILES
9.84 nM | C[C@@H](O)[C@@H]1NC(=O)[C@H](CCCCN)NC(=O)[C@@H](Cc2ccc(C(N)=O)cc2)NC(=O)[C@H](Cc2ccc(O)cc2)NC(=O)[C@H](NC(=O)[C@@H](N)Cc2ccc(Cl)cc2)CSSC[C@@H](C(=O)NC(Cc2ccc(Cl)cc2)C(N)=O)NC1=O (stereo partly drawn) [Compound 42, H-Cpa-cyclo[DCys- Tyr-D-(4- carbamoyl)Phe- Lys-Thr-Cys]- 4-Cl-D-Phe-NH2] (H-[Phe(4-Cl)][dC]Y[dPhe(4-CONH2)]KTC[ξPhe(4-Cl)]-NH2; disulfide 2-7)
1.51 nM | CNCCCC[C@@H]1NC(=O)[C@@H](Cc2ccc(C(N)=O)cc2)NC(=O)[C@H](Cc2ccc(Cl)cc2)NC(=O)[C@H](NC(=O)[C@@H](N)Cc2ccc(Cl)cc2)CSSC[C@@H](C(=O)NC(Cc2ccc(Cl)cc2)C(N)=O)NC(=O)[C@H]([C@@H](C)O)NC1=O (stereo partly drawn) [Compound 47, H-Cpa-cyclo[D-Cys-Cpa-D-Phe(4-carbamoyl)-Lys(N^ε-Me)-Thr-Cys]-D-Cpa-NH2] (H-[Phe(4-Cl)][dC][Phe(4-Cl)][dPhe(4-CONH2)][Lys(Me)]TC[ξPhe(4-Cl)]-NH2; disulfide 2-7)
0.398 nM | CNCCCC[C@@H]1NC(=O)[C@@H](Cc2ccc(C(N)=O)cc2)NC(=O)[C@H](Cc2ccc(O)cc2)NC(=O)[C@H](NC(=O)[C@@H](N)Cc2ccc(Cl)cc2)CSSC[C@@H](C(=O)NC(Cc2ccc(Cl)cc2)C(N)=O)NC(=O)[C@H]([C@@H](C)O)NC1=O (stereo partly drawn) [Compound 46, H-Cpa-cyclo[D-Cys-Tyr-D-Phe(4-carbamoyl)-Lys(N^ε-Me)-Thr-Cys]-D-Cpa-NH2] (H-[Phe(4-Cl)][dC]Y[dPhe(4-CONH2)][Lys(Me)]TC[ξPhe(4-Cl)]-NH2; disulfide 2-7)
